# Assay results: EP0341318A1, “NOVEL PLATINUM (II) COMPLEX, PROCESS FOR PREPARING THE SAME, AND THERAPEUTIC AGENT FOR MALIGNANT TUMOR” (TORAY INDUSTRIES, INC., priority 1987, dated 1989)
# “And” between values parts separate entries of the source, which are not always exact repeats. Equal values may be shown once.
# Assays:
# L1210 murine leukemia = assay: Antitumor activity against L1210 murine leukemia in mice; type: in vivo, CDF1 mice; conditions: for Survival days (mean±SD): administered on 1st, 5th and 9th days after tumor inoculation, CDF1 mice, 10^5 L1210 cells i.p.; for T/C (%) / Survival rate: days 1, 5, 9; for T/C (%): L1210 in CDF1 mice; for Survival rate: Number of 30 days survival mice / group
# Experimental: L1210 murine leukemia cells which were subcultured in DBA/2 mouse were inoculated intraperitoneally into CDF1 mice at 10^5 cells/mouse. Each experimental group was composed of 6-10 mice (male, 6-weeks old). Each test compound was administered three times, i.e., on the lst, 5th and 9th days after tumor inoculation. CBDCA and CDDP were used as control drugs in this experiment. Each compound was dissolved or suspended in 0.05% Tween 80 solution and administered in mice. Antitumor activity against L1210 leukemia was determined by T/C value calculated by the following equation and by the number of 30 days survival mice. [formula]
# The antitumor activities of the compounds Nos. 3 to 5 of this invention were determined in the same way as in Example 6.
# Slc:ICR mice = assay: Acute toxicity test on mice; type: in vivo; conditions: intraperitoneal injection, Slc:ICR mice (male, 5 weeks old), mortality on the 14th day
# Experimental: Each test compound was intraperitoneally injected into Slc:ICR mice (male, 5 weeks old). Each compound was formulated into a solution or suspension in a 0.05% Tween 80 solution. The LD50 value was calculated from mortality found on the 14th day after said injection.
Molecule,Survival days (mean±SD) (L1210 murine leukemia; Dose 1 mg/kg) [days],T/C (%) (L1210 murine leukemia; Dose 1 mg/kg),Survival days (mean±SD) (L1210 murine leukemia; Dose 10 mg/kg) [days],T/C (%) (L1210 murine leukemia; Dose 10 mg/kg),Survival days (mean±SD) (L1210 murine leukemia; Dose 25 mg/kg) [days],T/C (%) (L1210 murine leukemia; Dose 25 mg/kg),Survival days (mean±SD) (L1210 murine leukemia; Dose 50 mg/kg) [days],T/C (%) (L1210 murine leukemia; Dose 50 mg/kg),Survival days (mean±SD) (L1210 murine leukemia; Dose 100 mg/kg) [days],T/C (%) (L1210 murine leukemia; Dose 100 mg/kg),Survival days (mean±SD) (L1210 murine leukemia; Dose 200 mg/kg) [days],T/C (%) (L1210 murine leukemia; Dose 200 mg/kg),Survival rate (L1210 murine leukemia; dose 1 mg/kg),Survival rate (L1210 murine leukemia; dose 10 mg/kg),Survival rate (L1210 murine leukemia; dose 25 mg/kg),Survival rate (L1210 murine leukemia; dose 50 mg/kg),Survival rate (L1210 murine leukemia; dose 100 mg/kg),Survival rate (L1210 murine leukemia; dose 200 mg/kg),LD50 (Slc:ICR mice) [mg/kg],other results
"N[C@@H]1CCCC[C@H]1N.O=C(O)CC(=O)C=C([O-])C(F)(F)C(F)(F)C(F)(F)F.[OH-].[Pt+2] [Compound No. 3, 6,6,7,7,8,8,8-Heptafluoro-3,5-dioxooctanoic acid hydroxo-(trans-l-1,2-diaminocyclohexane)platinum(II)]",9.7 ± 1.4,115,9.7 ± 1.4,115,11.0 ± 0.9,131,11.8 ± 0.8,140,14.0 ± 2.7,167,11.2 ± 3.7,133,0/6,0/6,0/6,0/6,0/6,0/6,>200,–
"N.N.[Cl][Pt][Cl] [CDDP, cis-diamminedichloroplatinum(II), reference compound]",–,–,–,–,–,–,–,–,–,–,–,–,–,–,–,–,–,–,–,"Survival days (mean±SD) (L1210 murine leukemia; Dose 2.5 mg/kg, 2.5 mg/kg): 14.7 ± 2.7 days and 12.0 ± 3.0 days and 13.2 ± 2.9 days; T/C (%) (L1210 murine leukemia; Dose 2.5 mg/kg): 181% and 143% and 163%; Survival days (mean±SD) (L1210 murine leukemia; Dose 5.0 mg/kg, 5 mg/kg): 18.8 ± 4.3 days and 14.3 ± 2.9 days and 13.7 ± 1.5 days and 16.0 ± 2.8 days; T/C (%) (L1210 murine leukemia; Dose 5.0 mg/kg): 232% and 170% and 163% and 198%; Survival days (mean±SD) (L1210 murine leukemia; Dose 7.5 mg/kg, 7.5 mg/kg): 18.7 ± 3.1 days and 15.5 ± 2.1 days and 14.2 ± 2.4 days; T/C (%) (L1210 murine leukemia; Dose 7.5 mg/kg): 231% and 185% and 175%; Survival rate (L1210 murine leukemia; dose 2.5 mg/kg): 0/6; Survival rate (L1210 murine leukemia; dose 5.0 mg/kg): 0/6; Survival rate (L1210 murine leukemia; dose 7.5 mg/kg): 0/6"
"2-(2-(2-Methoxyethoxy)ethoxy)ethyl 2,2-dimethyl-6,6,7,7,8,8,8-heptafluoro-3,5-dioxooctanoate- hydroxo(trans-l-1,2-diamino-cyclohexane)platinum(II) [Compound No. 4]",10.7 ± 2.7,127,20.8 ± 7.8,248,23.7 ± 5.9,282,11.5 ± 9.5,137,2.0 ± 0.0,24,2.0 ± 0.0,24,0/6,2/6,2/6,1/6,0/6,0/6,–,–
"cis-diammine-1,1-cyclobutanedicarboxylate platinum(II) [CBDCA, reference compound]",8.3 ± 0.5,98,9.3 ± 0.5,109,10.1 ± 1.3,119,13.1 ± 2.3,156,14.1 ± 3.7,166,9.6 ± 0.7,113,0/10,0/10,0/10,0/10,0/10,0/10,–,–
"3-Heptafluorobutyryl-D-camphor-hydroxo(trans-l-1,2-diaminocyclohexane)platinum(II) [Compound No. 5]",9.0 ± 0.6,111,14.7 ± 2.3,181,19.8 ± 6.1,244,15.3 ± 7.1,189,4.2 ± 1.0,52,2.0 ± 0.0,25,0/6,0/6,1/6,0/6,0/6,0/6,47,–
"CC(C)(C)C(=O)C=C([O-])C(F)(F)C(F)(F)C(F)(F)F.N[C@@H]1CCCC[C@H]1N.[OH-].[Pt+2] [Compound No. 1, 2,2-Dimethyl-6,6,7,7,8,8,8-heptafluoro-3,5-octanedione-hydroxo(trans-I-1,2-diaminocyclohexane)platinum(II)]",10.5 ± 1.2,130,29.5 ± 1.2,364,29.7 ± 0.5,367,24.0 ± 10.3,296,5.2 ± 1.9,64,1.7 ± 0.5,21,0/6,4/6,4/6,4/6,0/6,0/6,35,"T/C (%) (L1210 murine leukemia; Dose 10 mg/kg, listed as compound No. 1, 10 mg/kg): greater than 360%; T/C (%) (L1210 murine leukemia; Dose 25 mg/kg, listed as compound No. 1, 25 mg/kg): greater than 360%; antitumor activity (L1210 murine leukemia; comparison in words with control drugs, L1210 in mice): higher than CDDP and CBDCA"
